The results in this text go back to US20130022692A1, “Expression Modulator For Clock Gene Period” (SHISEIDO COMPANY, LTD., priority 2010, published 2013).

The test system of the test is Period1 gene. In words: Period1 gene expression in cultured human skin fibroblastic cells (RT-PCR). Particulars: for Induction of expression rhythm and increase of Period1 gene expression: peak at 2 hours after stimulation, result in words. In kind it is cell-based. The procedure:
As the cultured human fibroblastic cells, fibroblastic cells from normal human skin were purchased (Cell Application, Inc.) and used in the experiments. They were inoculated in DMEM medium supplemented with 10% FBS, 20 mM HEPES, Glutamax and antibacterial agents and cultured at 37° C. in 5% CO2. On the 6th day of culture, 50 ng/mL of cortisol or 10 μM of forskolin was added to each wells, and the samples were harvested at various times after time 0, which was defined as the time immediately after the addition of cortisol or forskolin. RNA was extracted from the cells with a commercially available RNA extraction kit, and the amounts of expression of the intended genes were measured by RT-PCR technology using commercially available PCR primers (Perfect Real Time Primer, Takara Bio). As for clock genes, amounts of expression of Period1 and Bmal1, which are involved in the core system, were determined. Similarly, the amounts of expression of a housekeeping gene RPLP0 were quantified and used as an internal standard to calculate the relative expression of the intended genes to RPLP0. […] Test substances were evaluated for the expression modulating effect on a Period gene based on the amount of gene expression at 2 hours after stimulation. To confirm the induction of expression rhythm for the Period gene, the amount of expression of the Period1 gene at 16 hours after stimulation was also determined. Fibroblastic cells from normal human skin (Cell Application, Inc.) were inoculated according to a method similar to those used above. Each test substance was added on the 6th day of culture to a final concentration of 100 ppm, and the cells were harvested 2 and 16 hours after stimulation. […] The amounts of expression of the Period1 gene were determined by RT-PCR technology using commercially available PCR primers (Perfect Real Time Primer, Takara Bio). The amounts of gene expression of a housekeeping gene RPLP0 were quantified and used as an internal standard to calculate the relative expression of the target genes with respect to RPLP0.

Take `C=C1CC/C=C(\C)CC[C@@H]2[C@@H]1CC2(C)C` [beta-Caryophyllene]: the “Induction of expression rhythm and increase of Period1 gene expression” value is listed as “significantly increase amounts of gene expression of Period1”. Moreover, the “Relative amount of Period1 gene expression (2 hours)” value (test substance 100 ppm, 2 hours after stimulation, relative to RPLP0, control 0.23, *p < 0.05, **p < 0.01) is recorded as 0.44*.

For `C[C@]12CCC(=O)C=C1CC[C@@H]1[C@@H]2[C@@H](O)C[C@@]2(C)[C@H]1CC[C@]2(O)C(=O)CO` [cortisol, reference compound], the “Induction of expression rhythm and increase of Period1 gene expression” value was “significantly increase amounts of gene expression of Period1”.
